Assay results taken from PMC11940309, “Endocrine-Disrupting Activities of Flavones on Steroid Receptors: Structural Requirements and Synthesis of Novel Flavone with Improved Estrogenic Activity” (Biomedicines, 2025).

Legend:
[1] = molecular target: T1, progesterone receptor (PR) (Homo sapiens, UniProt P06401); experiment: PR-mediated induction of transcription by R5020 in T47D K5pLuc cells (luciferase reporter and endogenous alkaline phosphatase); format: cell-based; details: T47D, 8 µM, R5020 1.0 nM
T1 sequence (P06401 679-933 limits assumed): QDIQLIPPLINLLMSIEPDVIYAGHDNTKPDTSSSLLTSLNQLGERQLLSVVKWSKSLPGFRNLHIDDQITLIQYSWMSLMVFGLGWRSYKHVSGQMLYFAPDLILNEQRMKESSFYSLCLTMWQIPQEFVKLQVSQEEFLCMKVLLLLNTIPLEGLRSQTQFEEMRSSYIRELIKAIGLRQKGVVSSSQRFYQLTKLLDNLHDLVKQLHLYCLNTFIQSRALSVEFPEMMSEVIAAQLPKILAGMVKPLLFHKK
From the text: (§1) The engineered T47D breast cancer cell lines employed for the assessment of flavonoid activity on glucocorticoid receptor (GR) and progesterone receptor (PR) signaling permitted the facile quantitation transcription of both an endogenous gene and a stably integrated reporter gene. […] The T47D K5pLuc cell line responds to progestins via induction of a stably integrated cytokeratin 5-luciferase reporter gene. […] For assessment of the effect of the test compounds on androgen receptor (AR) signaling, we used the HeLa13 cell line engineered to stably express human AR and a PSA-luciferase reporter gene containing a 4× multimerized PSA upstream enhancer ARE1 linked to the E4 TATA box and luciferase gene.
Experiments testing the effect of flavonoids on progesterone receptor-mediated transcription employed T47D K5pluc cells. The protocol was the same as that for T47D (A1-2) cells except the medium was Dulbecco’s Modified Eagle’s Medium supplemented with 10% FBS, insulin (10 nM), puromycin 200 ng/mL, nonessential amino acids, penicillin (100 U/mL), and streptomycin (100 μg/mL). When treated with hormone, the synthetic progestin, R5020, was used at 1.0 nM. Hormone treatment was for 20 h at which time cells were harvested for assay of alkaline phosphatase and luciferase.
(§2) For all cell lines, cell harvesting and the luminescence assay for alkaline phosphatase and/or luciferase were performed as previously described in detail. Each condition was performed in quadruplicate. […] Percent inhibition is 100 minus the percent induction.

[2] = molecular target: T2, human AR (Homo sapiens, UniProt P10275); experiment: AR-mediated induction of PSA-luciferase reporter by R1881 in HeLa13 cells; format: cell-based; details: R1881 1.0 nM, read-out: % Inhibition of AR-Mediated Gene Induction
T2 construct: expressed in transfected cells; host or cells: HeLa13 (HeLa 13)
T2 sequence (P10275 1-920): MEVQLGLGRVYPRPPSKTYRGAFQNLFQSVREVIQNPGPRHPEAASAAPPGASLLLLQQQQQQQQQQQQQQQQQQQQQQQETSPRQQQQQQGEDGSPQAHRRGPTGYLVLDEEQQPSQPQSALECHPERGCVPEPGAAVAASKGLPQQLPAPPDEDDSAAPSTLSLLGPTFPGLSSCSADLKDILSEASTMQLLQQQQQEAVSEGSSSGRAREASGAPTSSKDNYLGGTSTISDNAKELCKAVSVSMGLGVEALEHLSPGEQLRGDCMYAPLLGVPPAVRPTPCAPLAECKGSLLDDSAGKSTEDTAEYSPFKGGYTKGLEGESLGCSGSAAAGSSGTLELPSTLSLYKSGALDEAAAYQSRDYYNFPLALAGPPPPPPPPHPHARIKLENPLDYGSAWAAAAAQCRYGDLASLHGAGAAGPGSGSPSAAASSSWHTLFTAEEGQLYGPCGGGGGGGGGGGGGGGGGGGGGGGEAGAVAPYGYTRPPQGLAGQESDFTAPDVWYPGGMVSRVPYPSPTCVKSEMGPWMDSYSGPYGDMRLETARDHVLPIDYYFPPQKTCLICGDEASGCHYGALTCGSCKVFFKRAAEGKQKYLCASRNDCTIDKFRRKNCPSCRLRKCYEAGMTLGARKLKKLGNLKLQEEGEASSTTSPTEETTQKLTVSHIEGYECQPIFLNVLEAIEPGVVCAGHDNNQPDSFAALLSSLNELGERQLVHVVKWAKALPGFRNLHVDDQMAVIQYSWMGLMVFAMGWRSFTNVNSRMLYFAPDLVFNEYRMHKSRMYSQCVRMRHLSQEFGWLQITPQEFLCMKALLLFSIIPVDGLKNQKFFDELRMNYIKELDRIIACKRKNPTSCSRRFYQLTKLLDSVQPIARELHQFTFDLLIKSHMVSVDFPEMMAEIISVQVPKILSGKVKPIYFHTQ
From the text: as §1
Experiments testing the effect of flavonoid on androgen receptor-mediated transcription employed HeLa 13 cells maintained in MEM medium supplemented with 10% FBS, 0.5 mg/mL G418, 0.05 mg/mL Hygromycin B, […], and streptomycin (100 μg/mL). For reporter gene experiments, cells were replated at a 1:5 dilution in MEM medium with 5% charcoal-stripped FBS and the antibiotics mentioned above. The medium was changed the next day. After 48 h, the cells were washed with PBSE, detached with phenol red-free trypsin, pelleted, resuspended and plated in 96 well plates as above. Hormone and flavonoid treatments were performed as described above with the HeLa 13 medium and charcoal-stripped FBS. When treated with hormone, the synthetic androgen, R1881, was used at 1.0 nM. Hormone treatment was for 20 h at which time cells were harvested for assay of luciferase.
as §2

[3] = tested on: estrogen receptor (ER); experiment: ER-mediated luciferase reporter induction in T47D KBluc cells; format: cell-based, human; details: for % ER Induction: relative to 1nM estradiol
Protocol: Experiments testing the effect of flavonoids on estrogen receptor-mediated transcription employed T47D KBluc cells. These cells were maintained in RPMI medium with 10% FBS, penicillin (100 U/mL), and streptomycin (100 μg/mL). For reporter gene experiments, cells were detached as above and replated at 50% confluency in phenol red-free RPMI media with 10% charcoal-stripped FBS and antibiotics (day one). All subsequent steps used phenol red-free medium and trypsin. On day three, the medium was replaced with fresh medium. On day five, cells were washed with PBSE, detached, resuspended, diluted, and replated in the phenol red-free RPMI with charcoal-stripped serum (50,000 cells per well as above).
as §2

[4] = tested on: estrogen receptor (ER); parameters: method as in PMID 11925457; details: previous report; cited from earlier work

inhibition at 8 µM ([1]; AP (alkaline phosphatase))	inhibition at 8 µM ([1]; LUC (luciferase))	inhibition at 4 µM [2]	inhibition at 1 µM [2]	EC50 lower than that of 6,4′-dihydroxyflavone ([3]; comparison at lower concentrations)	Structure (SMILES)	% ER Induction ([3]; 1 µM)	% ER Induction ([3]; 4 µM)	affinity for ER greater than that of 6,4′-dihydroxyflavone [4]
42%	-88%	22%			Oc1ccc(C2COc3cc(O)ccc3C2)cc1 (stereo not drawn) [7,4′-dihydroxyisoflavan]	96%	84%	
		71%	53%	2–3 fold	O=c1c(O)c(-c2ccc(O)cc2)oc2ccc(O)cc12 [3,6,4′-trihydroxyflavone]	102%	108%	3 fold
		49%	27%		COc1ccc2oc(-c3ccc(O)cc3)cc(=O)c2c1 [6-methoxy,4′-hydroxyflavone]	129%	167%	
